Laboratory results taken from patent publication EP4603105A1, “PHARMACEUTICAL COMPOSITION CONTAINING CYCLIC COMPOUND HAVING SELECTIVE KRAS INHIBITORY EFFECT AGAINST HRAS AND NRAS” (CHUGAI SEIYAKU KABUSHIKI KAISHA, priority 2022, dated 2024).
pIC50: −log10 of the molar value. *1 amine or outer side, *2 acyl side, *3 side chain or, on linkers, in order; H or OH if unused. Where a SMILES comes first, the peptide text is derived from it. Bridges are numbered along the chain shown (N, C = ends). [ ]: non-standard residue; d: D form. The star is where a group is joined. hPhe(3,5-F2-4-CF3) = N[C@@H](CCc1cc(F)c(C(F)(F)F)c(F)c1)C(=O)O; hPhe(3-Cl-4-CF3) = N[C@@H](CCc1ccc(C(F)(F)F)c(Cl)c1)C(=O)O; NPrPhe(4-CF3) = CCCN[C@@H](Cc1ccc(C(F)(F)F)cc1)C(=O)O; X32 = Cc1ccc(C[C@@H](C(=O)[*:2])N(CC2CCCC2)[*:1])cc1; NMeGly(cPent) = CN[C@H](C(=O)O)C1CCCC1; Hyp = O=C(O)[C@@H]1C[C@@H](O)CN1; NMeD = CN[C@@H](CC(=O)O)C(=O)O; Ac4c(3-oxa) = NC1(C(=O)O)COC1; NMeL = CN[C@@H](CC(C)C)C(=O)O; X10 = N#CCN(CC(=O)[*:2])[*:1]; Morpholide = C1CN(*)CCO1; NMeA = CN[C@@H](C)C(=O)O; Ac5c = NC1(C(=O)O)CCCC1; Aze = O=C(O)[C@@H]1CCN1; Ac4c = NC1(C(=O)O)CCC1; NEtG = CCNCC(=O)O; Sar = CNCC(=O)O

How the values were obtained:
[1] = target: GDP-bound NRAS wild-type protein (Homo sapiens, UniProt P01111); experiment: Binding to NRAS by surface plasmon resonance (SPR), KD and KD ratio to KRAS
Procedure, shortened: (§1)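 GDP-bound biotin-Avi RAS captured at ~100–300 RU, 30°C, pH 7.4 HBS containing 10 µM GDP, 10 mM MgCl2, 1 mM DTT, 0.01% Tween 20 and 4% DMSO. KD by 1:1 fitting.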

[2] = target: HRAS wild-type protein (Homo sapiens, UniProt P01112); experiment: Binding to HRAS by surface plasmon resonance (SPR), KD and KD ratio to KRAS
Procedure, shortened: as §1

[3] = tested on: human lung cancer strain NCI-H441; type: cell-based
Procedure, shortened: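 Readout: […] after the ATP-based reagent. Compound: serial dilutions in dimethyl sulfoxide.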

[4] = ratio of KD for GDP-bound NRAS wild-type protein to KD for KRAS
[5] = ratio of KD for HRAS wild-type protein to KD for KRAS
[6] = ratio of the KD value with respect to GDP-bound NRAS wild-type protein to the KD value with respect to KRAS
[7] = ratio of the KD value with respect to HRAS wild-type protein to the KD value with respect to KRAS
[8] = ratio of KD value for GDP-bound NRAS wild-type protein to KD value for KRAS (SPR)
[9] = ratio of KD value for HRAS wild-type protein to KD value for KRAS (SPR)

GDP-bound NRAS wild-type protein, sequence (P01111 whole entry): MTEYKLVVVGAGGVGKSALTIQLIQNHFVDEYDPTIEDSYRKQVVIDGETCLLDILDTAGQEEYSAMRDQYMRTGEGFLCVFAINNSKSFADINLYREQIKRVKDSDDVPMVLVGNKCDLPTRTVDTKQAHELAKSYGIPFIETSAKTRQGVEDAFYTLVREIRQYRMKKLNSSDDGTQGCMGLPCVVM
HRAS wild-type protein, sequence (P01112 whole entry): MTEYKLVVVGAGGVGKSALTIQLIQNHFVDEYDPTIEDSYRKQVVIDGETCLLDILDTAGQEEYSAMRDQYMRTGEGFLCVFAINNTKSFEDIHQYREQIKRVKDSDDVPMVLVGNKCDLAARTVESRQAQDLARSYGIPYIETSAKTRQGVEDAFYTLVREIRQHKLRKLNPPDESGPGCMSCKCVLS

Compound	NRAS /KRAS [1, 4]	HRAS /KRAS [2, 5]	pIC50 [3]	NRAS /KRAS [1, 6]	HRAS /KRAS [2, 7]	NRAS /KRAS [1, 8]	HRAS /KRAS [2, 9]
CCCN1C(=O)CN(C)C(=O)[C@@H]2CCN2C(=O)[C@H]([C@@H](C)CC)NC(=O)[C@H](CC(C)C)N(C)C(=O)C[C@@H](C(=O)N2CCOCC2)N(C)C(=O)[C@H](C2CCCC2)N(C)C(=O)C2(COC2)NC(=O)[C@@H]2CCCN2C(=O)[C@H](CCc2cc(F)c(C(F)(F)F)c(F)c2)NC(=O)CN(C)C(=O)[C@@H]1Cc1ccc(C(F)(F)F)cc1 [PP0782] ([NMeL]I[Aze][Sar][NPrPhe(4-CF3)][Sar][hPhe(3,5-F2-4-CF3)]P[Ac4c(3-oxa)][NMeGly(cPent)][NMeD]-Morpholide; lactam N-11)	B (a compound having 3 or more and less than 10 is denoted as B)	B (a compound having 3 or more and less than 10 is denoted as B)	6.37				
CCCN1C(=O)CN(C)C(=O)CN(CC#N)C(=O)[C@H]([C@@H](C)CC)NC(=O)[C@H](CC(C)C)N(C)C(=O)C[C@@H](C(=O)N2CCOCC2)N(C)C(=O)[C@H](C2CCCC2)N(C)C(=O)C2(CCCC2)NC(=O)[C@@H]2CCCN2C(=O)[C@H](CCc2ccc(C(F)(F)F)c(Cl)c2)NC(=O)CN(C)C(=O)[C@@H]1Cc1ccc(C(F)(F)F)cc1 [PP0254] ([NMeL]I[X10][Sar][NPrPhe(4-CF3)][Sar][hPhe(3-Cl-4-CF3)]P[Ac5c][NMeGly(cPent)][NMeD]-Morpholide; lactam N-11)	B (a compound having 3 or more and less than 10 is denoted as B)	C (A compound having a KD ratio of 0.1 or more and less than 3 is denoted as C)	8.25				
CC[C@H](C)[C@@H]1NC(=O)[C@H](CC(C)C)N(C)C(=O)C[C@@H](C(=O)N2CCOCC2)NC(=O)[C@H](C2CCCC2)N(C)C(=O)C2(CCCC2)NC(=O)[C@@H]2CCCN2C(=O)[C@H](CCc2cc(F)c(C(F)(F)F)c(F)c2)NC(=O)CN(C)C(=O)[C@H](Cc2ccc(C(F)(F)F)cc2)N2CCCCC[C@@H](C2=O)N(C)C(=O)CN(C)C1=O [PP0479]			5.61	B (a compound having 3 or more and less than 10 is denoted as B)	B (a compound having 3 or more and less than 10 is denoted as B)		
CCC[C@H]1C(=O)N[C@@H]([C@@H](C)CC)C(=O)N(C)CC(=O)N(C)[C@H]2C/C=C\CCN(C2=O)[C@@H](Cc2ccc(C)cc2)C(=O)N(C)CC(=O)N[C@@H](CCc2ccc(C(F)(F)F)c(OC)c2)C(=O)N2C[C@H](OCC)C[C@H]2C(=O)NC2(CC(C)(C)C2)C(=O)N(C)[C@@H]([C@@H](C)CC)C(=O)N(C)[C@H](C(=O)N(C)C)CC(=O)N1C [PP3006]	A (a compound having 10 or more and less than 20 is denoted as A)	A (a compound having 10 or more and less than 20 is denoted as A)	7.85				
CCC[C@H]1C(=O)N[C@@H]([C@@H](C)CC)C(=O)N(C2CC2)CC(=O)N(C)[C@H]2C/C=C\CCN(C2=O)[C@@H](Cc2ccc(C)cc2)C(=O)N(C)CC(=O)N[C@@H](CCc2cc(F)c3c(c2)OCC3)C(=O)N2C[C@H](OCC)C[C@H]2C(=O)NC2(CC(C)(C)C2)C(=O)N(C)[C@@H](C2CCCC2)C(=O)N(C)[C@H](C(=O)N(C)C)CC(=O)N1C [PP2880]	A (a compound having 10 or more and less than 20 is denoted as A)	A (a compound having 10 or more and less than 20 is denoted as A)	6.90				
CCC[C@H]1C(=O)N[C@@H]([C@@H](C)CC)C(=O)N(C2CC2)CC(=O)N(C)[C@H]2C/C=C\CCN(C2=O)[C@@H](Cc2ccc(C)cc2)C(=O)N(C)CC(=O)N[C@@H](CCc2cc(F)c(Cl)c(OC)c2)C(=O)N2C[C@H](OCC)C[C@H]2C(=O)NC2(CC(C)(C)C2)C(=O)N(C)[C@@H](C2CCCC2)C(=O)N(C)[C@H](C(=O)N(C)C)CC(=O)N1C [PP2871]	A (a compound having 10 or more and less than 20 is denoted as A)	A (a compound having 10 or more and less than 20 is denoted as A)	7.55				
CCC[C@H]1C(=O)N[C@@H]([C@@H](C)CC)C(=O)N(C2CC2)CC(=O)N(C)[C@H]2C/C=C\CCN(C2=O)[C@@H](Cc2ccc(C(F)(F)F)cc2)C(=O)N(C)CC(=O)N[C@@H](CCc2ccc(C(F)(F)F)c(OC)c2)C(=O)N2C[C@H](OCC)C[C@H]2C(=O)N(C)C2(CCC2)C(=O)N(C)[C@@H](C2CCCC2)C(=O)N(C)[C@H](C(=O)N2CCCC2)CC(=O)N1C [PP3097]	A (a compound having 10 or more and less than 20 is denoted as A)	A (a compound having 10 or more and less than 20 is denoted as A)	8.27				
CCC[C@H]1C(=O)N[C@@H]([C@@H](C)CC)C(=O)N(C)CC(=O)N(C)[C@H]2C/C=C\CCN(C2=O)[C@@H](Cc2ccc(C)cc2)C(=O)N(C)CC(=O)N[C@@H](CCc2ccc(C(F)(F)F)c(OC)c2)C(=O)N2C[C@@H](C)C[C@H]2C(=O)NC2(CC(C)(C)C2)C(=O)N(C)[C@@H](C2CCCC2)C(=O)N(C)[C@H](C(=O)N(C)CC)CC(=O)N1C [PP1889]			7.90			A (a compound having 10 or more and less than 20 is denoted as A)	B (a compound having 3 or more and less than 10 is denoted as B)
CC[C@H](C)[C@@H]1NC(=O)[C@H](CC2CCCC2)N(C)C(=O)C[C@@H](C(=O)N(C)C)N(C)C(=O)[C@@H](C2CCCC2)N(C)C(=O)C2(CCC2)NC(=O)[C@@H]2[C@@H](OCC(F)F)CCN2C(=O)[C@@H](CCc2cc(F)c(C(F)(F)F)c(F)c2)NC(=O)CN(C)C(=O)[C@@H](Cc2ccc(C)cc2)N2CC/C=C\C[C@H](C2=O)N(C)C(=O)CN(C)C1=O [PP1536]			7.61			A (a compound having 10 or more and less than 20 is denoted as A)	B (a compound having 3 or more and less than 10 is denoted as B)
CCCN1C(=O)CN(C)C(=O)CN(CC)C(=O)[C@H]([C@@H](C)CC)NC(=O)[C@H](CC(C)C)N(C)C(=O)C[C@@H](C(=O)N2CCOCC2)NC(=O)[C@H](C2CCCC2)N(C)C(=O)C2(CCC2)NC(=O)[C@@H]2C[C@@H](OCC)CN2C(=O)[C@H](CCc2ccc(C(F)(F)F)c(Cl)c2)NC(=O)CN(C)C(=O)[C@@H]1Cc1ccc(C(F)(F)F)cc1 [PP0336] ([NMeL]I[NEtG][Sar][NPrPhe(4-CF3)][Sar][hPhe(3-Cl-4-CF3)][Hyp](Et)[Ac4c][NMeGly(cPent)]D-Morpholide; lactam N-11)	B (a compound having 3 or more and less than 10 is denoted as B)	B (a compound having 3 or more and less than 10 is denoted as B)	7.14				
CCC[C@@H]1C[C@H]2C(=O)NC3(CC(C)(C)C3)C(=O)N(C)[C@@H](C3CCCC3)C(=O)N(C)[C@H](C(=O)N(C)C)CC(=O)N(C)[C@@H](CC)C(=O)N[C@@H]([C@@H](C)CC)C(=O)N(C)CC(=O)N(C)[C@H]3C/C=C\CCN(C3=O)[C@@H](Cc3ccc(C)cc3)C(=O)N(C)CC(=O)N[C@@H](CCc3cc(F)c(C(F)(F)F)c(F)c3)C(=O)N2C1 [PP2208]			7.75	A (a compound having 10 or more and less than 20 is denoted as A)	A (a compound having 10 or more and less than 20 is denoted as A)		
CCO[C@@H]1C[C@H]2C(=O)NC3(CC(C)(C)C3)C(=O)N(C)[C@@H](C3CCCC3)C(=O)N(C)[C@H](C(=O)N(C)CC)CC(=O)N(C)[C@@H](CC3CC3)C(=O)N[C@@H]([C@@H](C)CC)C(=O)N(C)CC(=O)N(C)[C@H]3C/C=C\CCN(C3=O)[C@@H](Cc3ccc(C(F)(F)F)cc3)C(=O)N(C)CC(=O)N[C@@H](CCc3cc(F)c(C(F)(F)F)c(F)c3)C(=O)N2C1 [PP1648]			8.68			A (a compound having 10 or more and less than 20 is denoted as A)	A (a compound having 10 or more and less than 20 is denoted as A)
CC[C@H](C)[C@@H]1NC(=O)[C@H](CC(C)C)N(C)C(=O)C[C@@H](C(=O)N2CCOCC2)N(C)C(=O)[C@H](C2CCCC2)N(C)C(=O)C2(CCCC2)NC(=O)[C@@H]2CCCN2C(=O)[C@H](CCc2ccc(C(F)(F)F)c(Cl)c2)NC(=O)CN(C)C(=O)[C@H](Cc2ccc(C)cc2)N(CC2CCCC2)C(=O)[C@@H]2CCN2C(=O)[C@H](C)N(C)C1=O [PP0084] ([NMeL]I[NMeA][Aze][X32][Sar][hPhe(3-Cl-4-CF3)]P[Ac5c][NMeGly(cPent)][NMeD]-Morpholide; lactam N-11)	C (A compound having a KD ratio of 0.1 or more and less than 3 is denoted as C)	B (a compound having 3 or more and less than 10 is denoted as B)	7.30				
CC[C@H](C)[C@@H]1NC(=O)[C@H](COC)N(C)C(=O)C[C@@H](C(=O)N2CCOCC2)N(C)C(=O)[C@H](C2CCCC2)N(C)C(=O)C2(CCC2)NC(=O)[C@@H]2CC(F)(F)CN2C(=O)[C@H](CCc2cc(F)c(C(F)(F)F)c(F)c2)NC(=O)CN(C)C(=O)[C@H](Cc2ccc(C(F)(F)F)cc2)N2CCCCC[C@@H](C2=O)N(C)C(=O)CNC1=O [PP0861]	B (a compound having 3 or more and less than 10 is denoted as B)	B (a compound having 3 or more and less than 10 is denoted as B)	7.68				
